Read-outs that look alike come from different tables or passages of the source.
Experiments:
[1] = test system: Boophilus microplus (SP-resistant Parkhurst strain); assay: Test with Boophilus microplus resistant (SP-resistant Parkhurst strain), injection; type: in vivo; settings: injected, checked after 7 days; for activity (no oviposition of fertile eggs): 0.16 μg active compound per animal; for kill (activity: no oviposition of fertile eggs): 0.8 μg active compound per animal
Method: Test With Boophilus Microplus Resistant (SP-Resistant Parkhurst Strain)
20 mg of active compound are dissolved in 1 ml of dimethyl sulphoxide, more dilute concentrations are prepared by dilution in the same solvent.
The test is carried out in 5 replications. 1 μl of the solutions is injected into the abdomen, and the animals are transferred into dishes and kept in a climatized room. After 7 days, the activity is checked by examination for oviposition of fertile eggs. Eggs whose fertility is not visible from the outside are stored in glass tubes in a controlled-environment cabinet until the larvae have hatched. An activity of 100% means that no tick has produced any fertile eggs.

[2] = logP by HPLC (EEC Directive 79/831 Annex V.A8, gradient method); type: physicochemical; settings: for chromatographic logP: pH 2.3; for logP (pH 2): HPLC, acetonitrile/0.1% aqueous phosphoric acid
Meloidogyne incognita = assay: Meloidogyne test (gall formation on lettuce roots); type: in vivo; settings: 20 ppm active compound, after 14 days
Method: To produce a suitable preparation of active compound, 1 part by weight of active compound is mixed with the stated amounts of solvent and emulsifier, and the concentrate is diluted with water to the desired concentration.
Containers are filled with sand, solution of active compound, Meloidogyne incognita egg/larvae suspension and lettuce seeds. The lettuce seeds germinate and the plants develop. On the roots, galls are formed.
After the desired period of time, the nematicidal action is determined in % using gall formation as a measure. 100% means that no galls were found; 0% means that the number of galls on the treated plants corresponds to that of the untreated control.

[3] = test system: larvae of the mustard beetle (Phaedon cochleariae); assay: Phaedon larvae test (cabbage leaf dip); type: in vivo; settings: active compound concentration 0.1%, after 7 days
Method: (§1) To produce a suitable preparation of active compound, 1 part by weight of active compound is mixed with the stated amounts of solvent and emulsifier, and the concentrate is diluted with emulsifier-containing water to the desired concentration.
After the desired period of time, the kill in % is determined. 100% means that all beetle larvae have been killed; 0% means that none of the beetle larvae have been killed.

[4] = test system: greenhouse red spider mite (Tetranychus urticae); assay: Tetranychus test (OP-resistant/dip treatment); type: in vivo; settings: active compound concentration 0.1%, after 7 days
Method: Tetranychus Test (OP-Resistant/Dip Treatment)
as §1
Bean plants (Phaseolus vulgaris) which are heavily infested by all stages of the greenhouse red spider mite (Tetranychus urticae) are dipped into a preparation of active compound of the desired concentration.
After the desired period of time, the effect in % is determined. 100% means that all spider mites have been killed; 0% means that none of the spider mites have been killed.

[5] = test system: peach aphid (Myzus persicae); assay: Myzus test (cabbage leaf dip); type: in vivo; settings: active compound concentration 0.1%, after 6 days
Method: as §1
Cabbage leaves (Brassica oleracea) which are heavily infested by the peach aphid (Myzus persicae) are treated by being dipped into the preparation of active compound of the desired concentration.
After the desired period of time, the kill in % is determined. 100% means that all aphids have been killed; 0% means that none of the aphids have been killed.

[6] = test system: Ctenocephalides felis, strain "Georgi"; assay: Test with cat fleas/oral uptake; type: in vivo; settings: 100 ppm in citrated cattle blood, after 28 h
Method: Test With Cat Fleas/Oral Uptake
To produce a suitable formulation, a suitable solution of active compound is prepared from 20 mg of active compound and 1 ml of DMSO. 15 μl of this formulation are added to 3 ml of citrated cattle blood and stirred.
10 unfed adult fleas (Ctenocephalides felis, strain “Georgi”) are placed into a chamber (Ø3.2 cm) whose top and bottom are closed with gauze. A metal cylinder whose underside is covered with parafilm is placed onto the chamber. The cylinder contains 3 ml of blood/active compound formulation which can be taken up by the fleas through the parafilm membrane. Whereas the blood is warmed to 37° C., the temperature in the area of the flea chambers is adjusted to 25° C. Controls are mixed with the same volume of DMSO, without addition of a compound. The determinations are carried out in triplicate.
After 28 h, the mortality in % (=dead fleas) is determined.
Compounds which effect an at least 25% kill of the fleas within 28 h are judged to be effective.

Lucilia cuprina larvae = assay: Blowfly larvae test (development-inhibitory action); type: in vivo; settings: 100 ppm active compound
Method: Blowfly Larvae Test (Development-Inhibitory Action)
20 mg of active compound are dissolved in 1 ml of dimethyl sulphoxide, more dilute concentrations are prepared by dilution with distilled water.
About 20 Lucilia cuprina larvae are introduced into a test tube which contains about 1 cm^3 of horse meat and 0.5 ml of the preparation of active compound to be tested. After 24 hours and 48 hours, the efficacy of the preparation of active compound is determined. The test tubes are transferred into a beaker whose bottom is covered with sand. After a further 2 days, the test tubes are removed and the pupae are counted.
The efficacy of the preparation of active compound is assessed by the number of flies that have hatched after 1.5 times the period of development of an untreated control. 100% means that no flies have hatched; 0% means that all flies have hatched normally.

| Structure (SMILES) | activity (no oviposition of fertile eggs) [1] | nematicidal action (activity, gall formation as a measure) (Meloidogyne incognita) | logP (pH 2) [2] | further results |
| --- | --- | --- | --- | --- |
| FC(F)=C(F)CCCCSc1nc(-c2ccccc2)cs1 [Example 1, 4-phenyl-2-(6,6,5-trifluorohex-5-enylthio)-1,3-thiazole] | 100% | 100% |  | chromatographic logP ([2]; read-out: logP (pH 2.3)): 5.21 |
| Cc1csc(SCCCCC(F)=C(F)F)n1 [Example 9] |  |  | 3.85 |  |
| O=S(=O)(CCCCC(F)=C(F)F)c1nc(-c2ccccc2)cs1 [Example 3, 4-phenyl-2-(6,6,5-trifluorohex-5-enylsulphonyl)-1,3-thiazole] | 100% |  |  | chromatographic logP [2]: 3.67 |
| FC(F)=CCCCCSc1nc(Cl)c(C(F)(F)F)s1 [Example 12] |  |  | 5.62 |  |
| FC(F)=C(F)CCCCSc1nc(Cl)c(Cl)s1 [Example 5] |  | 98% | 5.33 | kill (activity: no oviposition of fertile eggs) [1]: 100%; kill [3]: 100% |
| FC(F)=CCCCCSc1nc(Cl)c(Cl)s1 [Example 6] |  | 100% | 5.53 | kill [4]: 100%; kill [3]: 100%; kill [5]: 95% |
| Cc1nc(SCCCCC(F)=C(F)F)sc1C [Example 11] |  |  | 4.20 |  |
| FC(F)=C(F)CCCCSc1nc(-c2ccccc2)c(-c2ccccc2)o1 [Example 7] |  | 100% | 5.96 |  |
| FC(F)=CCCCCSc1nc(-c2ccccc2)cs1 [Example 4] | 100% | 100% | 5.38 | kill (mortality) [6]: 100%; kill (activity: no oviposition of fertile eggs) [1]: 100%; kill [4]: 98% |
| FC(F)=C(F)CCCCSc1nc(Cl)c(C(F)(F)F)s1 [Example 10] |  |  | 5.40 |  |
| [O-][S+](CCCCC(F)=C(F)F)c1nc(-c2ccccc2)cs1 (stereo not shown) [Example 2, 4-phenyl-2-(6,6,5-trifluorohex-5-enylsulphinyl)-1,3-thiazole] | 100% |  |  | chromatographic logP ([2]; read-out: logP (pH 2.3)): 3.47 |
| FC(F)=CCCCCSc1nc(-c2ccccc2)c(-c2ccccc2)o1 [Example 8] |  | 100% | 6.14 | kill (activity: no oviposition of fertile eggs) [1]: 100%; kill (efficacy: flies not hatched) (Lucilia cuprina larvae): 100%; kill [4]: 98%; kill [3]: 100% |
